Results as given in patent publication US10954219B2, “1,3-benzodioxole derivative” (DAIICHI SANKYO COMPANY, LIMITED, priority 2014, dated 2021).
Structures can show the parent of a compound that is named as a salt.

Assays:
PRC2-EZH1 (WT EZH1) = PRC2-EZH1 (WT EZH1) (Homo sapiens, UniProt Q92800); experiment: EZH1 methyltransferase inhibitory activity evaluation
PRC2-EZH2 (WT EZH2) = biological target: T1, PRC2-EZH2 (WT EZH2) (Homo sapiens, UniProt Q15910); experiment: EZH2 methyltransferase inhibitory activity evaluation; assay type: biochemical; conditions: PRC2-EZH2, biotin-H3 peptide, 3H-SAM, 2 hours
T1 construct: made in house

[1] = tested on: Intracellular H3K27me3 in HCT116 cells; experiment: Intracellular H3K27me3 inhibitory activity evaluation; assay type: cell-based; conditions: Homo sapiens, HCT-116, 72 h, 3 days, AlphaLISA, read-out: Test Example 3 H3K27me3 inhibition (HCT116) IC50

T1 sequence (Q15910 whole entry): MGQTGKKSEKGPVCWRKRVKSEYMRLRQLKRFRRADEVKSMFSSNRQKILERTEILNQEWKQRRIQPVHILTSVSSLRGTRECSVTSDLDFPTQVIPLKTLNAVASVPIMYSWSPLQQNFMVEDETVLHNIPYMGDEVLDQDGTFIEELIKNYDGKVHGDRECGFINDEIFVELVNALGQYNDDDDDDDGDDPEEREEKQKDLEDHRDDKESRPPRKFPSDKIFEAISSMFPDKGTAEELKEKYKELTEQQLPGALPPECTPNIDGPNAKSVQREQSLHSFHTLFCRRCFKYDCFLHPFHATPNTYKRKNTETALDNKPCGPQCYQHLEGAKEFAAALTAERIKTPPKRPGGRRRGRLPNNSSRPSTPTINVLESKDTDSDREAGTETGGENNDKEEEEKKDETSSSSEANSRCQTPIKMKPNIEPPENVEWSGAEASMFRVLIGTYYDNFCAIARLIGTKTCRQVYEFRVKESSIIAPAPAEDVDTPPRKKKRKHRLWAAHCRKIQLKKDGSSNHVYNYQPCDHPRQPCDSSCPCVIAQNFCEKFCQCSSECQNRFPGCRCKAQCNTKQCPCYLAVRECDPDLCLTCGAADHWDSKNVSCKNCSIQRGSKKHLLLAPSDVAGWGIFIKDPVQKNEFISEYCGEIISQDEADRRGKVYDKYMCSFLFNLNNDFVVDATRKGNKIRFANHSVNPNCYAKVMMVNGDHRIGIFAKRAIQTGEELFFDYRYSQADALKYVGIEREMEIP
T1 sequence (O75530 whole entry partner): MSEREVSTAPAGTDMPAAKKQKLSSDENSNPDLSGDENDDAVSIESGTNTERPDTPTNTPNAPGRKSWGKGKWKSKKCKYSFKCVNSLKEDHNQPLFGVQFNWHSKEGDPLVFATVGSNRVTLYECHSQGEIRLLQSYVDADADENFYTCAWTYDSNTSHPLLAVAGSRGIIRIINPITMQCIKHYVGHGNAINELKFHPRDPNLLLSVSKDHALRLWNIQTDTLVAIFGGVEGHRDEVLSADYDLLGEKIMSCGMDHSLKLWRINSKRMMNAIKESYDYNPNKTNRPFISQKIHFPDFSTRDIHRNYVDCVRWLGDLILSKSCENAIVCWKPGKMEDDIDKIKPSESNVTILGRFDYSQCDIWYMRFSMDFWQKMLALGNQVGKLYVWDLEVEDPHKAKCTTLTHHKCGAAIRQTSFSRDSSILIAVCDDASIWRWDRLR
T1 sequence (Q15022 whole entry partner): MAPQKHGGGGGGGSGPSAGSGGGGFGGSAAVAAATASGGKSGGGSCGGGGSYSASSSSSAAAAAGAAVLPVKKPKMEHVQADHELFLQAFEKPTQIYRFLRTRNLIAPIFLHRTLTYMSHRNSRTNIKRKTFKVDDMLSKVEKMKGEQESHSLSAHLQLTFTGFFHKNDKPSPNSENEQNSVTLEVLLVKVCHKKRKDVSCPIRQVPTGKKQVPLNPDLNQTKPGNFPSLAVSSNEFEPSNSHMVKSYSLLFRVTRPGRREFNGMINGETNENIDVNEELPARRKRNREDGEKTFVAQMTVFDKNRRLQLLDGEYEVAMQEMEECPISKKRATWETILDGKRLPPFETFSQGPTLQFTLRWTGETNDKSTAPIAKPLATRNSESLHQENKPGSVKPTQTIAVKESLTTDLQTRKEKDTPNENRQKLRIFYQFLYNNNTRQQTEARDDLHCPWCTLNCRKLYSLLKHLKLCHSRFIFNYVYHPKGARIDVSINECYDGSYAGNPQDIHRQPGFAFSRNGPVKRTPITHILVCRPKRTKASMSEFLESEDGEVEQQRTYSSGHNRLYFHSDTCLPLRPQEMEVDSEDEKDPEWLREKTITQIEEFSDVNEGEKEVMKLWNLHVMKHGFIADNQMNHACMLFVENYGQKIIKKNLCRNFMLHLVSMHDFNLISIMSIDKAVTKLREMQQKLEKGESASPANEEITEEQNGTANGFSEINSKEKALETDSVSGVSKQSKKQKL
Chain of PRC2-EZH1 (WT EZH1) (Q92800 whole entry): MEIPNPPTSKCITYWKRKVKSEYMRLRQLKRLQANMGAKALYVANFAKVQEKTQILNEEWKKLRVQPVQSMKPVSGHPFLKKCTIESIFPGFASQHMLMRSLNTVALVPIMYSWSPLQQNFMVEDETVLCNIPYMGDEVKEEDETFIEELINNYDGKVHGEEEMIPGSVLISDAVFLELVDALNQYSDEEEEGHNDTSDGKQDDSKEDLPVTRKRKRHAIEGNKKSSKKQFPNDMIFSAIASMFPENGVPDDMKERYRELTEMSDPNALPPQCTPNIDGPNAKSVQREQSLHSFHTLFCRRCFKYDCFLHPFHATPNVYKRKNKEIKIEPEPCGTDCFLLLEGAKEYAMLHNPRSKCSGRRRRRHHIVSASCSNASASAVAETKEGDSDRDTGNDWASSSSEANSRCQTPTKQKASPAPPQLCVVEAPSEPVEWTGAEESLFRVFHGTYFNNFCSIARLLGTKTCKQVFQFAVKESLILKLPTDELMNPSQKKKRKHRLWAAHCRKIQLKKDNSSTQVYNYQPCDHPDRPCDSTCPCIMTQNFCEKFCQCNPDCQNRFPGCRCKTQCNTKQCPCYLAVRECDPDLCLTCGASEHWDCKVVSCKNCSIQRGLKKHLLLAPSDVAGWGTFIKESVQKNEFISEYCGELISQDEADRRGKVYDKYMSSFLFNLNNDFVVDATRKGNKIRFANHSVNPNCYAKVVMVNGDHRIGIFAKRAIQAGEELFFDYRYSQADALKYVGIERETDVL
Chain of PRC2-EZH1 (WT EZH1) (O75530 whole entry partner): as the sequence (O75530 whole entry partner) above
Chain of PRC2-EZH1 (WT EZH1) (Q15022 whole entry partner): as the sequence (Q15022 whole entry partner) above
Chain of PRC2-EZH1 (WT EZH1) (Q09028 whole entry partner): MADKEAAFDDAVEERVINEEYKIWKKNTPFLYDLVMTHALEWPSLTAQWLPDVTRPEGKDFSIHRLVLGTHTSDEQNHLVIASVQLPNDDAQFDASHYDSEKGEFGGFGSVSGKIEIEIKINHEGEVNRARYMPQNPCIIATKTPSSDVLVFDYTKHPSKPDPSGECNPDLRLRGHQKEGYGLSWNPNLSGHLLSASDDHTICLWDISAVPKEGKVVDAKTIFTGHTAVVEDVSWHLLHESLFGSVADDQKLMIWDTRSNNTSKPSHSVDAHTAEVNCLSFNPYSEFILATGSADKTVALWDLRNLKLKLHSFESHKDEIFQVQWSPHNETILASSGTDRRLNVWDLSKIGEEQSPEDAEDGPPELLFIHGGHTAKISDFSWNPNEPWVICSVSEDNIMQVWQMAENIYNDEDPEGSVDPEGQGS
Chain of PRC2-EZH1 (WT EZH1) (Q6ZN18 whole entry partner): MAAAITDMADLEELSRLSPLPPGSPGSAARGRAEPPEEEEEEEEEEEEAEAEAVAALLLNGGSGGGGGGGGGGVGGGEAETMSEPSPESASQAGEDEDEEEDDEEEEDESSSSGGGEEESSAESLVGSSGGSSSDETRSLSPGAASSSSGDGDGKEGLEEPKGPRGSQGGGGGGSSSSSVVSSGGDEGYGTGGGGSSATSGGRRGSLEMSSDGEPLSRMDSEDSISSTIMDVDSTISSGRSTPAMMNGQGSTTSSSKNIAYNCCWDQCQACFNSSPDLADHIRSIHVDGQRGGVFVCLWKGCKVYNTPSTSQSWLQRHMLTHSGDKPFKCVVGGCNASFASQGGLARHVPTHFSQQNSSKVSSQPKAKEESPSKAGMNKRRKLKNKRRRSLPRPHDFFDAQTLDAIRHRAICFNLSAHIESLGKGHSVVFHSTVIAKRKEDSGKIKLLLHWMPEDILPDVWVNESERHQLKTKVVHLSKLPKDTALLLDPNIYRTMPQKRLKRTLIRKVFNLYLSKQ

IC50 (PRC2-EZH1 (WT EZH1)) [nM]	IC50 (PRC2-EZH2 (WT EZH2)) [nM]	IC50 [1] [nM]	Structure (SMILES)
68	23	6.4	CCN1CCN(c2ccc(-c3cc(C(=O)NCc4c(C)cc(C)[nH]c4=O)c(C)c4c3OC(C)(C3CCOCC3)O4)cn2)CC1 (stereo not drawn) [Example 56, N-[(4,6-Dimethyl-2-oxo-1,2-dihydropyridin-3-yl)methyl]-7-[6-(4-ethylpiperazin-1-yl)-3-pyridyl]-2,4-dimethyl-2-(tetrahydropyran-4-yl)-1,3-benzodioxole-5-carboxamide]
8.9	8	0.48	Cc1cc(C)c(CNC(=O)c2cc(C)c3c(c2C)O[C@@](C)([C@H]2CC[C@H](N(C)C)CC2)O3)c(=O)[nH]1 (single isomer, unassigned) [Example 48]
21	26	11	CCc1cc(C)[nH]c(=O)c1CNC(=O)c1cc(-c2cnn(C)c2)c2c(c1C)OC(C)([C@H]1CC[C@H](N(C)C)CC1)O2 (relative stereo) [Example 75, 2-[trans-4-(Dimethylamino)cyclohexyl]-N-[(4-ethyl-6-methyl-2-oxo-1,2-dihydropyridin-3-yl)methyl]-2,4-dimethyl-7-(1-methylpyrazol-4-yl)-1,3-benzodioxole-5-carboxamide hydrochloride]
23	22	3.8	Cc1cc(C)c(CNC(=O)c2cc(Br)c3c(c2C)OC(C)(C[C@H]2CC[C@@H](N(C)C)CC2)O3)c(=O)[nH]1 (relative stereo) [Example 27, 7-Bromo-2-[[cis-4-(dimethylamino)cyclohexyl]methyl]-N-[(4,6-dimethyl-2-oxo-1,2-dihydropyridin-3-yl)methyl]-2,4-dimethyl-1,3-benzodioxole-5-carboxamide]
510	39	45	Cc1cc(C)c(CNC(=O)c2cc(Br)c3c(c2C)OC(C)(C2CCN(C)C2)O3)c(=O)[nH]1 (stereo not drawn) [Example 6, 7-Bromo-N-[(4,6-dimethyl-2-oxo-1,2-dihydropyridin-3-yl)methyl]-2,4-dimethyl-2-(1-methylpyrrolidin-3-yl)-1,3-benzodioxole-5-carboxamide]
21	16	5.9	Cc1cc(C)c(CNC(=O)c2cc(Br)c3c(c2C)OC(C)([C@H]2CC[C@H](N)CC2)O3)c(=O)[nH]1 (relative stereo) [Example 13, 2-(trans-4-Aminocyclohexyl)-7-bromo-N-[(4,6-dimethyl-2-oxo-1,2-dihydropyridin-3-yl)methyl]-2,4-dimethyl-1,3-benzodioxole-5-carboxamide]
11	6.6	5.5	Cc1cc(C)c(CNC(=O)c2cc(C3=CCOCC3)c3c(c2C)OC(C)([C@H]2CC[C@H](N(C)C)CC2)O3)c(=O)[nH]1 (relative stereo) [Example 62, 7-(3,6-Dihydro-2H-pyran-4-yl)-2-[trans-4-(dimethylamino)cyclohexyl]-N-[(4,6-dimethyl-2-oxo-1,2-dihydropyridin-3-yl)methyl]-2,4-dimethyl-1,3-benzodioxole-5-carboxamide]
200	28	140	CCCc1cc(C)[nH]c(=O)c1CNC(=O)c1cc(Br)c2c(c1C)O[C@@](C)(C1CCN(CC)CC1)O2 [Example 12, (2R)-7-Bromo-2-(1-ethyl-4-piperidyl)-2,4-dimethyl-N-[(6-methyl-2-oxo-4-propyl-1,2-dihydropyridin-3-yl)methyl]-1,3-benzodioxole-5-carboxamide]
